The source made the active and inactive calls. The calls are words filed in the database; no cut-off is given here.
Experiments:
Hepatovirus A [1] = test: Antiviral activity against Hepatitis A virus infected Vero cells assessed as reduction in viral plaque at 20 ug/ml after overnight incubation by crystal violet staining; type: functional; design: scale not given: the % may be the effect or the level left
Hepatovirus A [2] = test: Antiviral activity against Hepatitis A virus infected Vero cells assessed as reduction in viral plaque at 10 ug/ml after overnight incubation by crystal violet staining; type: functional; design: scale not given: the % may be the effect or the level left
Human alphaherpesvirus 1 [3] = test: Antiviral activity against Human herpesvirus 1 infected Vero cells assessed as reduction in viral plaque at 20 ug/ml after overnight incubation by crystal violet staining; type: functional; design: scale not given: the % may be the effect or the level left
Human alphaherpesvirus 1 [4] = test: Antiviral activity against Human herpesvirus 1 infected Vero cells assessed as reduction in viral plaque at 10 ug/ml after overnight incubation by crystal violet staining; type: functional; design: scale not given: the % may be the effect or the level left
[5] = test system: Human immunodeficiency virus 2; test: Antiviral activity against Human immunodeficiency virus type 2 (ISOLATE ROD) infected MT4 cells assessed as inhibition of virus-induced cytopathic effect up to 20 ug/ml after 5 days by MTT assay; type: functional, organism-based
[6] = test system: Human immunodeficiency virus 1; test: Antiviral activity against Human immunodeficiency virus 1 IIIB infected MT4 cells assessed as inhibition of virus-induced cytopathic effect up to 20 ug/ml after 5 days by MTT assay; type: functional, organism-based
[7] = Cytotoxicity against Chlorocebus aethiops (African green monkey) Vero cells after 3 days by microscopic analysis; type: cell-based; conditions: chlorocebus sabaeus
[8] = Selectivity ratio of MCC for human HEL cells to EC50 for acyclovir-resistant TK-deficient Hepres simplex virus 1 KOS; type: ADME, cell-based
[9] = Selectivity ratio of MCC for human HEL cells to EC50 for Vesicular stomatitis virus; type: ADME, cell-based
[10] = Selectivity ratio of MCC for human HEL cells to EC50 for Vaccinia virus; type: ADME, cell-based
[11] = Selectivity ratio of MCC for human HEL cells to EC50 for Herpes simplex virus 2 G; type: ADME, cell-based
[12] = Selectivity ratio of MCC for human HEL cells to EC50 for Herpes simplex virus 1 KOS; type: ADME, cell-based
Punta Toro virus = test: Antiviral activity against Punta Toro virus infected Vero cells assessed as inhibition of virus-induced cytopathic effect after 3 days by MTT assay; type: functional, organism-based; conditions: 72 h
Coxsackievirus B4 [13] = test: Antiviral activity against Human coxsackievirus B4 infected Vero cells assessed as inhibition of virus-induced cytopathic effect after 3 days by MTT assay; type: functional, organism-based; conditions: Enterovirus B, 72 h
Sindbis virus = test: Antiviral activity against Sindbis virus infected Vero cells assessed as inhibition of virus-induced cytopathic effect after 3 days by MTT assay; type: functional, organism-based; conditions: 72 h
Reovirus sp. = test: Antiviral activity against Mammalian orthoreovirus 1 virus infected Vero cells assessed as inhibition of virus-induced cytopathic effect after 3 days by MTT assay; type: functional, organism-based; conditions: 72 h
Human respirovirus 3 = test: Antiviral activity against Human parainfluenza virus 3 infected Vero cells assessed as inhibition of virus-induced cytopathic effect after 3 days by MTT assay; type: functional, organism-based; conditions: Human respirovirus 3, Vero, 72 h
[14] = test system: Respiratory syncytial virus; test: Antiviral activity against Respiratory syncytial virus infected HeLa cells assessed as inhibition of virus-induced cytopathic effect after 3 days by MTT assay; type: functional, organism-based; conditions: human respiratory syncytial virus, 72 h
Coxsackievirus B4 [15] = test: Antiviral activity against Human coxsackievirus B4 infected HeLa cells assessed as inhibition of virus-induced cytopathic effect after 3 days by MTT assay; type: functional, organism-based; conditions: Enterovirus B, 72 h
[16] = test system: Vesicular stomatitis virus; test: Antiviral activity against Vesicular stomatitis virus infected HeLa cells assessed as inhibition of virus-induced cytopathic effect after 3 days by MTT assay; type: functional, organism-based; conditions: 72 h
[17] = Cytotoxicity against Homo sapiens (human) HeLa cells after 3 days by microscopic analysis; type: cell-based
Human alphaherpesvirus 1 [18] = test: Antiviral activity against acyclovir-resistant TK-deficient Hepres simplex virus 1 KOS infected in HEL cells assessed as inhibition of virus-induced cytopathic effect after 3 days by MTT assay; type: functional, organism-based; conditions: Human alphaherpesvirus 1, KOS, 72 h
[19] = test system: Vesicular stomatitis virus; test: Antiviral activity against Vesicular stomatitis virus infected HEL cells assessed as inhibition of virus-induced cytopathic effect after 3 days by MTT assay; type: functional, organism-based; conditions: 72 h
Vaccinia virus = test: Antiviral activity against Vaccinia virus infected in HEL cells assessed as inhibition of virus-induced cytopathic effect after 3 days by MTT assay; type: functional, organism-based; conditions: Orthopoxvirus vaccinia, 72 h
Human alphaherpesvirus 2 = test: Antiviral activity against Human herpesvirus 2 strain G infected HEL cells assessed as inhibition of virus-induced cytopathic effect after 3 days by MTT assay; type: functional, organism-based; conditions: Human alphaherpesvirus 2, strain G, 72 h
Human alphaherpesvirus 1 [20] = test: Antiviral activity against Human herpesvirus 1 strain KOS infected in HEL cells assessed as inhibition of virus-induced cytopathic effect after 3 days by MTT assay; type: functional, organism-based; conditions: Human alphaherpesvirus 1, KOS, 72 h
[21] = Cytotoxicity against Homo sapiens (human) HEL cells after 3 days by microscopic analysis; type: cell-based

SMILES	Activity (Hepatovirus A [1]) [%]	Activity (Hepatovirus A [2]) [%]	Activity (Human alphaherpesvirus 1 [3]) [%]	Activity (Human alphaherpesvirus 1 [4]) [%]	Activity [5]	Activity [6]	MCC at 72 h [7]	EC50 (Human alphaherpesvirus 1 [18])	EC50 [19]	EC50 (Human alphaherpesvirus 2)	MCC at 72 h [21]	further results
c1ccc(COc2ccc(C3CC(c4ccccc4)=NO3)cc2)cc1 (stereo unspecified)	2	0	15	3	inactive	inactive	> 100 µg/mL					
c1ccc(COc2ccc(C3CC(c4ccccc4)=NN3c3ccccc3)cc2)cc1 (stereo unspecified)	23	7	30	0	inactive	inactive	100 µg/mL	> 20 µg/mL	> 20 µg/mL	> 20 µg/mL	100 µg/mL	selectivity ratio [8]: > 5; selectivity ratio [9]: > 5; selectivity ratio [10]: > 5; selectivity ratio [11]: > 5; selectivity ratio [12]: > 5; EC50 (Punta Toro virus): > 20 µg/mL; EC50 (Coxsackievirus B4 [13]): > 20 µg/mL; EC50 (Sindbis virus): > 20 µg/mL; EC50 (Reovirus sp.): > 20 µg/mL; EC50 (Human respirovirus 3): > 20 µg/mL; EC50 [14]: > 20 µg/mL; EC50 (Coxsackievirus B4 [15]): > 20 µg/mL; EC50 [16]: > 20 µg/mL; MCC at 72 h [17]: 100 µg/mL; EC50 (Vaccinia virus): > 20 µg/mL; EC50 (Human alphaherpesvirus 1 [20]): > 20 µg/mL
Clc1ccc(C2=NOC(c3ccc(OCc4ccccc4)cc3)C2)cc1 (stereo unspecified)	58	10	60	38	inactive	inactive	> 100 µg/mL					
NC(=O)c1ncn([C@@H]2O[C@H](CO)[C@@H](O)[C@H]2O)n1 [RIBAVIRIN]							> 250 µM	> 250 µM	> 250 µM	> 250000 nM	> 250 µM	EC50 (Coxsackievirus B4 [13]): > 250 µM; EC50 (Sindbis virus): > 250 µM; EC50 (Reovirus sp.): > 250 µM; EC50 (Human respirovirus 3): 45 µM; MCC at 72 h [17]: > 250 µM; EC50 (Human alphaherpesvirus 1 [20]): > 250 µM
Brc1ccc(C2=NOC(c3ccc(OCc4ccccc4)cc3)C2)cc1 (stereo unspecified)	21	7.3	67	26.1	inactive	inactive	≥ 20 µg/mL					
Cc1ccc(C2=NOC(c3ccc(OCc4ccccc4)cc3)C2)cc1 (stereo unspecified)	46	27	79	45	inactive	inactive	> 100 µg/mL					
Nc1nc2c(ncn2COC(CO)CO)c(=O)[nH]1 [GANCICLOVIR]								6 µM	> 100 µM	80 nM	> 100 µM	EC50 (Vaccinia virus): > 100 µM

From ChEMBL document CHEMBL3046360, “Design, synthesis and preliminary antiviral screening of new N-phenylpyrazole and dihydroisoxazole derivatives” (Med Chem Res, 2010)
